The results in this text go back to ChEMBL document CHEMBL2074049, “Identity of the organic cation transporter OCT3 as the extraneuronal monoamine transporter (uptake2) and evidence for the expression of the transporter in the brain” (J Biol Chem, 1998).

Data set [1] concerns the target T1, Solute carrier family 22 member 1 (Rattus norvegicus, UniProt Q63089).
T1 sequence (Q63089 whole entry): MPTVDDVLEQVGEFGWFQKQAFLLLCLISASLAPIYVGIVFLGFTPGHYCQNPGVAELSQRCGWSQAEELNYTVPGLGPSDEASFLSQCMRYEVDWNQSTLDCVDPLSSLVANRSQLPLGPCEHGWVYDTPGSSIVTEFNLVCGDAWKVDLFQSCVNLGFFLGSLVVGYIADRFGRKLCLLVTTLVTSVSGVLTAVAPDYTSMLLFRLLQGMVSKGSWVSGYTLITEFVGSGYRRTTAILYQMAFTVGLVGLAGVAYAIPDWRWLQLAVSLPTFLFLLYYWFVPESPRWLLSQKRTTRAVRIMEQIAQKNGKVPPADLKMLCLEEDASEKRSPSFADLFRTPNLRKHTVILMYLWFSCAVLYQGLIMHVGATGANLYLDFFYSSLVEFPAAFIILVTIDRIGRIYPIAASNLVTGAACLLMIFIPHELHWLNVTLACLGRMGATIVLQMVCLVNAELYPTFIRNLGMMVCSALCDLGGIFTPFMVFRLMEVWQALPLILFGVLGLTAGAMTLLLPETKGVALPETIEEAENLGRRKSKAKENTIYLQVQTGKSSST
The data set can be described thus: TP_TRANSPORTER: inhibition of TEA uptake (TEA: 20 uM, Testosterone: 100 uM) in OCT1-expressing HRPE cells. The settings on record: human. Format: functional, cell-based.

Data set [2] addresses T1, Solute carrier family 22 member 1. The data set can be described thus: TP_TRANSPORTER: inhibition of TEA uptake (TEA: 20 uM, beta-Estradiol: 100 uM) in OCT1-expressing HRPE cells. Format: functional, cell-based. The note with it: human.
Data set [3] concerns the target T2, Solute carrier family 22 member 3 (Rattus norvegicus, UniProt O88446).
T2 sequence (O88446 whole entry): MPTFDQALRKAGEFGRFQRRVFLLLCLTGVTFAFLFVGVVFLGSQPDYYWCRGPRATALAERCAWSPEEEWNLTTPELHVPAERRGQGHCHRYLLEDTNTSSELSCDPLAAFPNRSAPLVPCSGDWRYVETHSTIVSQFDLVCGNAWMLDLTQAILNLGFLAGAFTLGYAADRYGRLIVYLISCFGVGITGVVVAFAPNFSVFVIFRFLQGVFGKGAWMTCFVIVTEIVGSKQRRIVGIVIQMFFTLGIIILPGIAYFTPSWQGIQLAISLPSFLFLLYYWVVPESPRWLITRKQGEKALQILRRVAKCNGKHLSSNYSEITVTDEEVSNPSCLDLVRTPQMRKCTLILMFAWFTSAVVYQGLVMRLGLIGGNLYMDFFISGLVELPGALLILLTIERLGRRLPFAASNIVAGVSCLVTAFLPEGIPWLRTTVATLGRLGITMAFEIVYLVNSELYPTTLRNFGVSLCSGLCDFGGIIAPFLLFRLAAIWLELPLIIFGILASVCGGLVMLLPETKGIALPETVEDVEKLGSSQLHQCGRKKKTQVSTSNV
The experiment in a line: TP_TRANSPORTER: inhibition of TEA uptake (TEA: 20 uM) in OCT3-expressing HRPE cells. The data set is classed as functional, cell-based.

Data set [4] concerns the target T3, Solute carrier family 22 member 2 (Rattus norvegicus, UniProt Q9R0W2).
T3 sequence (Q9R0W2 whole entry): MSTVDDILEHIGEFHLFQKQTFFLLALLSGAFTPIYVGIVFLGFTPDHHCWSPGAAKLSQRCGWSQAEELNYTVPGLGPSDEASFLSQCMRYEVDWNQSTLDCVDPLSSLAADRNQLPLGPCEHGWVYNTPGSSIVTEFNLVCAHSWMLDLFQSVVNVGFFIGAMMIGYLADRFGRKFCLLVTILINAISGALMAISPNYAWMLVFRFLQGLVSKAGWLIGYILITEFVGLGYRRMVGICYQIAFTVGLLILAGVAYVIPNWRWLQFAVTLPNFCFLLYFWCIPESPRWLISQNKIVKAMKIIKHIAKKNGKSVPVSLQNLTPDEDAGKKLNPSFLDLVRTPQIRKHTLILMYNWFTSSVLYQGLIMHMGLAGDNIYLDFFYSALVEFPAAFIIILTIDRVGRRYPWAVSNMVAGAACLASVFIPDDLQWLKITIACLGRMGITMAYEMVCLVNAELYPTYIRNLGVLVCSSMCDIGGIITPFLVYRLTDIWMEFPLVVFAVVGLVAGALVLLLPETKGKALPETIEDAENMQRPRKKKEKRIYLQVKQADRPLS
The data set can be described thus: TP_TRANSPORTER: inhibition of TEA uptake (TEA: 20 uM) in OCT2-expressing HRPE cells. The data set is classed as functional, cell-based.

Data set [5] has as its target T1, Solute carrier family 22 member 1. The experiment in a line: TP_TRANSPORTER: inhibition of TEA uptake in OCT1-expressing HRPE cells. The data set is classed as functional, cell-based. The settings on record: human.
The target of data set [6] is T2, Solute carrier family 22 member 3. The experiment in a line: TP_TRANSPORTER: inhibition of MPP+ uptake (MPP+: 1 uM) in OCT3-expressing HRPE cells. The data set is classed as functional, cell-based.
The target is the same in data set [7]. The experiment in a line: TP_TRANSPORTER: inhibition of Dopamine uptake (Dopamine: 0.15 uM, Cocaine: 100 uM) in OCT3-expressing HRPE cells. Format: functional, cell-based. The note with it: human.
Data set [8] addresses T1, Solute carrier family 22 member 1. The experiment in a line: TP_TRANSPORTER: inhibition of TEA uptake (TEA: 20 uM, Corticosterone: 100 uM) in OCT1-expressing HRPE cells. Format: functional, cell-based. The settings on record: human.
For data set [9] the target is unchanged. The data set can be described thus: TP_TRANSPORTER: inhibition of TEA uptake (TEA: 20 uM, Deoxycorticosterone: 100 uM) in OCT1-expressing HRPE cells. The data set is classed as functional, cell-based. The settings on record: human.
For data set [10], the target named is T2, Solute carrier family 22 member 3. The data set can be described thus: (§1) TP_TRANSPORTER: uptake in OCT3-expressing HRPE cells. Format: functional, cell-based. The settings on record: human.
Substrate in data set [11]: C[n+]1ccc(-c2ccccc2)cc1
Described as §1. The data set is classed as functional, cell-based.

Substrate in data set [12]: C[n+]1ccc(-c2ccccc2)cc1
The experiment in a line: TP_TRANSPORTER: uptake (electrogenesis, -50mV) in Xenopus laevis oocytes. Format: functional, cell-based, Oocyte.

With `C[C@]12CC[C@H]3[C@@H](CCC4=CC(=O)CC[C@@]43C)[C@@H]1CC[C@@H]2O` [TESTOSTERONE], the Activity result in data set [1] is “is not an inhibitor [-]”.

By IC50 is commonly meant the midpoint of a concentration-inhibition curve. Turning to `C[C@]12CC[C@@H]3c4ccc(O)cc4CC[C@H]3[C@@H]1CC[C@@H]2O` [ESTRADIOL], the Activity entry in data set [2] was “is not an inhibitor [-]”. Besides, the IC50 in [3] came to 1.1 µM; in data set [4], 84.8 µM.

With `CC(=O)[C@H]1CC[C@H]2[C@@H]3CCC4=CC(=O)CC[C@]4(C)[C@H]3CC[C@]12C` [PROGESTERONE], the IC50 in [3] came out at 10.5 µM; in data set [4], 1.6 µM. Besides, the Activity entry in [5] was “inhibitor [+]”.

For the molecule `NC[C@H](O)c1ccc(O)c(O)c1` [NOREPINEPHRINE], the half-maximal inhibitory concentration (IC50) in [3] was 434 µM; in data set [4], 11000 µM.

Consider `CC(N)Cc1ccccc1` (stereo unspecified) [AMPHETAMINE], for which half-maximal inhibition in data set [6] (IC50) was put at 42 µM. In other words, the double-digit micromolar range.

For `C[C@]12C[C@H](O)[C@H]3[C@@H](CCC4=CC(=O)CC[C@@]43C)[C@@H]1CC[C@@H]2C(=O)CO` [CORTICOSTERONE], the values for the Activity entry in data set [7] and in [8] were “inhibitor [(at a rough estimate) 5 % of control]” and “is not an inhibitor [-]”, respectively. The results for the IC50 in data set [3] and in data set [4] were 4.9 µM and 4.2 µM, respectively.

`C[C@]12CC[C@H]3[C@@H](CCC4=CC(=O)CC[C@@]43C)[C@@H]1CC[C@@H]2C(=O)CO` [DESOXYCORTICOSTERONE]: the Activity result in data set [9] is “is not an inhibitor [-]”. Also, the IC50 in data set [3] is 8.4 µM; in data set [4], 1.9 µM.

`CN[C@@H](C)Cc1ccccc1` [METHAMPHETAMINE] displayed an IC50 in [6] of 248 µM.

Take `NCCc1ccc(O)c(O)c1` [DOPAMINE]: in data set [10], the Activity entry is “substrate [+]”. Moreover, the IC50 in [3] was found to be 384 µM; in [4], 2300 µM; in data set [6], 62 µM.

In the case of `CNCCCN1c2ccccc2CCc2ccccc21` [DESIPRAMINE], it took 68 µM to reach half-maximal inhibition in [6] (IC50).

On to `NCCc1c[nH]c2ccc(O)cc12` [SEROTONIN], for which, in data set [6], the IC50 worked out at 97 µM.

B1: Solute carrier family 22 member 3 (Rattus norvegicus) (protein)
chain: MPTFDQALRKAGEFGRFQRRVFLLLCLTGVTFAFLFVGVVFLGSQPDYYWCRGPRATALAERCAWSPEEEWNLTTPELHVPAERRGQGHCHRYLLEDTNTSSELSCDPLAAFPNRSAPLVPCSGDWRYVETHSTIVSQFDLVCGNAWMLDLTQAILNLGFLAGAFTLGYAADRYGRLIVYLISCFGVGITGVVVAFAPNFSVFVIFRFLQGVFGKGAWMTCFVIVTEIVGSKQRRIVGIVIQMFFTLGIIILPGIAYFTPSWQGIQLAISLPSFLFLLYYWVVPESPRWLITRKQGEKALQILRRVAKCNGKHLSSNYSEITVTDEEVSNPSCLDLVRTPQMRKCTLILMFAWFTSAVVYQGLVMRLGLIGGNLYMDFFISGLVELPGALLILLTIERLGRRLPFAASNIVAGVSCLVTAFLPEGIPWLRTTVATLGRLGITMAFEIVYLVNSELYPTTLRNFGVSLCSGLCDFGGIIAPFLLFRLAAIWLELPLIIFGILASVCGGLVMLLPETKGIALPETVEDVEKLGSSQLHQCGRKKKTQVSTSNV
For orientation: Km means the substrate concentration at which the rate is half of its maximum. For the molecule B1, the Michaelis-Menten constant (Km) in data set [11] amounted to 91 µM; in [12], 24 µM.
